Values quoted from earlier work, collected in US20060210492A1 (priority 2005, published 2006).

solubility in water: practically insoluble
Compound: CO[C@H]1/C=C/O[C@@]2(C)Oc3c(C)c(O)c4c(O)c(c5c(nc6cc(C)ccn65)c4c3C2=O)NC(=O)/C(C)=C\C=C\[C@H](C)[C@H](O)[C@@H](C)[C@@H](O)[C@@H](C)[C@H](OC(C)=O)[C@@H]1C [rifaximin, (2S,16Z,18E,20S,21S,22R,23R,24R,25S,26S,27S,28E)-5,6,21,23,25-pentahydroxy-27-methoxy-2,4,11,16,20,22,24,26-octamethyl-2,7-(epoxypentadeca-[1,11,13]trienimino)benzofuro[4,5-e]pyrido[1,2-a]-benzimidazole-1,15(2H)-dione,25-acetate]
